{
  "source": "patent US5459049A",
  "about": "“Motilin-like polypeptide and use thereof” (priority 1989, dated 1995)",
  "biological_target": "upper small intestine of rabbit (Oryctolagus cuniculus, UniProt G1T803)",
  "sequence (G1T803 1-400)": "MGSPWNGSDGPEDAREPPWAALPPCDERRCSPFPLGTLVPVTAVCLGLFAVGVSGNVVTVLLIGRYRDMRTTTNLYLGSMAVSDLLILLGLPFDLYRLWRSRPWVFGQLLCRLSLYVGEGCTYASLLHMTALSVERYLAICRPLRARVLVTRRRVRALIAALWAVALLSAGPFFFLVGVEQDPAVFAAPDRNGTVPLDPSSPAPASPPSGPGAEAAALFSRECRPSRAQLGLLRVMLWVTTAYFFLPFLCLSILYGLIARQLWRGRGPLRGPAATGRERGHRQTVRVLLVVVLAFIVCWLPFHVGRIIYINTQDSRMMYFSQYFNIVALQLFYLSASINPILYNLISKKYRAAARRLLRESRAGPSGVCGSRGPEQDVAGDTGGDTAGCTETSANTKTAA",
  "conditions": "from ED50, contraction activity of native motilin taken as 100%",
  "procedure": "An intestinal contraction activity was measured by Magnus method using upper small intestine of rabbit [\"J. Pharm. Pharmac.\", Vol. 28, pages 650-651 (1976)], on each motilin-like polypeptides (Example 1, wherein R1 is Hse, Asp-Gly-Ile-Phe-Hse, or Arg-Ile-Phe-Hse) according to the invention, as test samples and a conventional pure [Leu^13 ]-motilin, as control sample. The activities of the test samples and control sample were compared, under assumption of that an contraction activity caused by 10^-6 M acetylcholine is 100%.",
  "data": [
    {"molecule": "CC[C@H](C)[C@H](NC(=O)[C@@H]1CCCN1C(=O)[C@@H](NC(=O)[C@@H](N)Cc1ccccc1)C(C)C)C(=O)N[C@@H](Cc1ccccc1)C(=O)N[C@H](C(=O)N[C@@H](Cc1ccc(O)cc1)C(=O)NCC(=O)N[C@@H](CCC(=O)O)C(=O)N[C@@H](CC(C)C)C(=O)N[C@@H](CCC(N)=O)C(=O)N[C@@H](CCCNC(=N)N)C(=O)N[C@@H](CCSC)C(=O)N[C@@H](CCC(N)=O)C(=O)N[C@@H](CCC(=O)O)C(=O)N[C@@H](CCCCN)C(=O)N[C@@H](CCC(=O)O)C(=O)N[C@@H](CCCNC(=N)N)C(=O)N[C@@H](CC(N)=O)C(=O)N[C@@H](CCCCN)C(=O)NCC(=O)N[C@@H](CCC(N)=O)C(=O)O)[C@@H](C)O", "note": "[native motilin]", "values": [
      {"measurement": "Activity in vitro (%)", "value": 100, "unit": "%"}
    ]}
  ]
}
